Legend:
Assay in all cases: KinaseProfiler off-target kinase profiling
Type in all cases: biochemical
Details in all cases: 10 μM, ATP near Km
Abl-P = Abl-P (Homo sapiens (Human), UniProt P00519)
In short: (§1)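 Readout is percent of control (POC), averaged from two replicates. Each kinase was tested with compound at 10 μM and ATP near its Km.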

Abl2 = Abl2 (Homo sapiens (Human), UniProt P42684)
In short: as §1

Bmx = Bmx (Homo sapiens (Human), UniProt P51813)
In short: as §1

CAMK1 = CAMK1 (Homo sapiens (Human), UniProt Q14012)
In short: as §1

CAMK1d = CAMK1d (Homo sapiens (Human), UniProt Q8IU85)
In short: as §1

CAMK2b = CAMK2b (Homo sapiens (Human), UniProt Q13554)
Sequence of CAMK2b (Q13554 whole entry): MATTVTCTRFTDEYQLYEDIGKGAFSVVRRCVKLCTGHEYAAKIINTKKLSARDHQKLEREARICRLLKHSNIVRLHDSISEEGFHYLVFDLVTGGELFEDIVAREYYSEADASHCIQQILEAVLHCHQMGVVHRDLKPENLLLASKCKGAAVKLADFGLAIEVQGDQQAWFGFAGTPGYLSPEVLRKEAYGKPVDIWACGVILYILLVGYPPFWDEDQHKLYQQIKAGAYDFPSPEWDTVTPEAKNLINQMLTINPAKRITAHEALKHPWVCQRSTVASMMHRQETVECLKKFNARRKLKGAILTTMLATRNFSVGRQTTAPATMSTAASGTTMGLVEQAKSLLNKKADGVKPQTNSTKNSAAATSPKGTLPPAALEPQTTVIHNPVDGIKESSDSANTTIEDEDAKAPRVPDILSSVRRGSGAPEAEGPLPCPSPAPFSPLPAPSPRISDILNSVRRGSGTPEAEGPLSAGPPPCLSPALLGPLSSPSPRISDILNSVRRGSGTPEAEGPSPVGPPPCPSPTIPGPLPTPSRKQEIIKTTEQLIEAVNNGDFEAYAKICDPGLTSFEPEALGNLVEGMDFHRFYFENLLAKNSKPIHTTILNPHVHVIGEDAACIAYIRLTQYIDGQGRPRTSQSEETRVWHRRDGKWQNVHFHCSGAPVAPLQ
In short: as §1

CDK1/cyclinB = CDK1/cyclinB (Homo sapiens (Human), UniProt P06493)
In short: as §1

CDK6/cyclinD3 = CDK6/cyclinD3 (Homo sapiens (Human), UniProt Q00534)
In short: as §1

CDK7/cyclinH/MAT1 = CDK7/cyclinH/MAT1 (Homo sapiens (Human), UniProt P50613)
In short: as §1

CK1_y = system: CK1_y
In short: as §1

CK1gamma2 = CK1gamma2 (Homo sapiens (Human), UniProt P78368)
In short: as §1

FAK2 = FAK2 (Homo sapiens (Human), UniProt Q14289)
Sequence of FAK2 (Q14289 whole entry): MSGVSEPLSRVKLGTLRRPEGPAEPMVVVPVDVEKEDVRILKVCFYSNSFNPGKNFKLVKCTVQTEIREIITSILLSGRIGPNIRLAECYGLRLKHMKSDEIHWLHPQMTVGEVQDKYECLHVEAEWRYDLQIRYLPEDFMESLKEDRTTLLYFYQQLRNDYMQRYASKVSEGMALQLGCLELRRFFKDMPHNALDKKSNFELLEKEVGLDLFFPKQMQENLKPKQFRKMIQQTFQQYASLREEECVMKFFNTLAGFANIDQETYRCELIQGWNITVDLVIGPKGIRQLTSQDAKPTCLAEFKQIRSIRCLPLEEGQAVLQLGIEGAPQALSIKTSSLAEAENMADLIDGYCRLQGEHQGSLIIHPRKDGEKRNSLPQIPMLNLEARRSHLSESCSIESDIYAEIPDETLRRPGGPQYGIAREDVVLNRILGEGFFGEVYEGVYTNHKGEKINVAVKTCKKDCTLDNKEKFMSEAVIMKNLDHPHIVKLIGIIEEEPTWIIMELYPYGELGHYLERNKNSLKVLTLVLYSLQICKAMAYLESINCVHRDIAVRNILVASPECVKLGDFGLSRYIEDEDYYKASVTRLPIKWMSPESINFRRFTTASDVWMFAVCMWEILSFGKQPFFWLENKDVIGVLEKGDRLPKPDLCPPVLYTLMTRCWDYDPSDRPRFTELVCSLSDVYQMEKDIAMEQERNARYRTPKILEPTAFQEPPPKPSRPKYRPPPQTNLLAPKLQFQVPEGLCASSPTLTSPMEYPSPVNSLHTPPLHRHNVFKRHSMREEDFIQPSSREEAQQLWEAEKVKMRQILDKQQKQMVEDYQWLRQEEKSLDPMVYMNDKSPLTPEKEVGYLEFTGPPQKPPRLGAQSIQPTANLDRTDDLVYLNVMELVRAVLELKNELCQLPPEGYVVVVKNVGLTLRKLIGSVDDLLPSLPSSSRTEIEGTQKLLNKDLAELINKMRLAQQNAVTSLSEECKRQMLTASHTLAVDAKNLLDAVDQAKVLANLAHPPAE
In short: as §1

FGFR4 = FGFR4 (Homo sapiens (Human), UniProt P22455)
In short: as §1

Fer = Fer (Homo sapiens (Human), UniProt P16591)
In short: as §1

Flt1 = Flt1 (Homo sapiens (Human), UniProt P17948)
Sequence of Flt1 (P17948 27-1338): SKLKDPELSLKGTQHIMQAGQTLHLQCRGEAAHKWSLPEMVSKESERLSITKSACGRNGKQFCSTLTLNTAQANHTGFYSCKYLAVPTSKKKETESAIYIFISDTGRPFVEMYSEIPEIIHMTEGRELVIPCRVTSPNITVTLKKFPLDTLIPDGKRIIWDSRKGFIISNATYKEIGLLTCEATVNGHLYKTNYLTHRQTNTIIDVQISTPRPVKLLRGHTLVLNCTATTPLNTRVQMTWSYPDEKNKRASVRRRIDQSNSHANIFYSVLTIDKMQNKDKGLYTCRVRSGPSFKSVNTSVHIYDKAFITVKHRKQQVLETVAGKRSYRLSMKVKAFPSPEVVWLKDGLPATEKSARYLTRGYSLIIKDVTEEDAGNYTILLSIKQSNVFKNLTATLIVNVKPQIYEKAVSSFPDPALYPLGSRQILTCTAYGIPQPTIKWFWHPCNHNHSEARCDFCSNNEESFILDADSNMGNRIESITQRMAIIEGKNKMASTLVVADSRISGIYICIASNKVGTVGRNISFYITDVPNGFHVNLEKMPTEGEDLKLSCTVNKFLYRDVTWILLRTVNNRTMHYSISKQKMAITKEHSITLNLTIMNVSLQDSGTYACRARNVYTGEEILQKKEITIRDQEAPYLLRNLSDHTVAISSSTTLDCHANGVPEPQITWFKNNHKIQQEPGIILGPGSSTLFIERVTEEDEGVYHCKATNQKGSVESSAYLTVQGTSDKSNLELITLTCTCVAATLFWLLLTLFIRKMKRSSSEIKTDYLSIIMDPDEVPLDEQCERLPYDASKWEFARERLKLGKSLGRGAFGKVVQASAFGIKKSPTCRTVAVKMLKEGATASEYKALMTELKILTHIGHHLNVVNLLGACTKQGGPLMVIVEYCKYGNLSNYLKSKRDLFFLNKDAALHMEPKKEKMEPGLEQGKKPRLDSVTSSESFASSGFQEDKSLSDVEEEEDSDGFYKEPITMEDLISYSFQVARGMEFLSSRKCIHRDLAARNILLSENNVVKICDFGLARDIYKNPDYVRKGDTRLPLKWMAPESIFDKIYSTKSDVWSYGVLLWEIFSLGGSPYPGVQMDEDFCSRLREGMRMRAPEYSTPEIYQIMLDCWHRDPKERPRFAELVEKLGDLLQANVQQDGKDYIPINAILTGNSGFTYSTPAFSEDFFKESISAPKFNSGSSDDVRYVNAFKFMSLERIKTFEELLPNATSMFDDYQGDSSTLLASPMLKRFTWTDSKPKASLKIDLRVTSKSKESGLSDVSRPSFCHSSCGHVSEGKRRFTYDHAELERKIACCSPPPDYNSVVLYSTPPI
In short: as §1

HIPK2 = HIPK2 (Homo sapiens (Human), UniProt Q9H2X6)
In short: as §1

HIPK3 = HIPK3 (Homo sapiens (Human), UniProt Q9H422)
In short: as §1

IKKbeta = IKKbeta (Homo sapiens (Human), UniProt O14920)
In short: as §1

IR Activated = IR Activated (Homo sapiens (Human), UniProt P06213)
Sequence of IR Activated (P06213 1005-1310 limits assumed): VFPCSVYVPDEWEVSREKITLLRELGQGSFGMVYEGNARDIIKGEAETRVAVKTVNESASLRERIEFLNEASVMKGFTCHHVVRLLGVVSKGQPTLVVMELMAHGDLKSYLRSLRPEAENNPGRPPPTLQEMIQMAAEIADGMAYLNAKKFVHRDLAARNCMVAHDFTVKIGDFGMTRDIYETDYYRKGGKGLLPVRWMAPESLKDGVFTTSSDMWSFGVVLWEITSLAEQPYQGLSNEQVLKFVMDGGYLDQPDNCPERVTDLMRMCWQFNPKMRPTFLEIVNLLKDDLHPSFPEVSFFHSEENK
In short: as §1

JAK2 = JAK2 (Homo sapiens (Human), UniProt O60674)
Sequence of JAK2 (O60674 whole entry): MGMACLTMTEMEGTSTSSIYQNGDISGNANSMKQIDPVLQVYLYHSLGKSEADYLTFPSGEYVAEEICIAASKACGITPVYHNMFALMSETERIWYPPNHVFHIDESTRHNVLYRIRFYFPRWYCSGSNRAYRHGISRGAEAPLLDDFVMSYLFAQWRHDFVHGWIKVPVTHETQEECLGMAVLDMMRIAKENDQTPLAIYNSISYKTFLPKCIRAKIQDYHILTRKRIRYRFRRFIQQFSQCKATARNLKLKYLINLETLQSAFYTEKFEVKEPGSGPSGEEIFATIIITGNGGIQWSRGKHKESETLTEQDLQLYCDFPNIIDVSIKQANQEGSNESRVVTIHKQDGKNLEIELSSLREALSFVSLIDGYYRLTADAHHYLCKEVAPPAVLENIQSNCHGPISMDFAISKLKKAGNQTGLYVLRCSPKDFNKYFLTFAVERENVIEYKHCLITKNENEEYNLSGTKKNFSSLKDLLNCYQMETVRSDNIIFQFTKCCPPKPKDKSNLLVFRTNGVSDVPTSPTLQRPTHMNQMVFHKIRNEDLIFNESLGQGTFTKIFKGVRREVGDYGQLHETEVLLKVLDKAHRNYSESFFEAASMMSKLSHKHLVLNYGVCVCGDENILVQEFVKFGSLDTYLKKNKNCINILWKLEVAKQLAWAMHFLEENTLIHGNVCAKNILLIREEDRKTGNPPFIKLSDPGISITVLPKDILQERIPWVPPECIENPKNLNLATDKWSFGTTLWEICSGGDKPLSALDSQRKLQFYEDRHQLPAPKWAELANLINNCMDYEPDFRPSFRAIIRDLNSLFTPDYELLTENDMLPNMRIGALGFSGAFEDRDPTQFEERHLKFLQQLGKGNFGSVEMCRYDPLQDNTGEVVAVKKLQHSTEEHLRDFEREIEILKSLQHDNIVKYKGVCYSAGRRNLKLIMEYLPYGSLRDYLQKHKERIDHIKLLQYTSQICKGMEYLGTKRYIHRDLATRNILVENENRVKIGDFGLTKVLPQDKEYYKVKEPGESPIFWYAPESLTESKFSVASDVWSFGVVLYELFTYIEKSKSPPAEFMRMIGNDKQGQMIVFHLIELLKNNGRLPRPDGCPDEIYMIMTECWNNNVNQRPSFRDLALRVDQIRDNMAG
In short: as §1

LOK = LOK (Homo sapiens (Human), UniProt O94804)
In short: as §1

MAPKAP-K3 = MAPKAP-K3 (Homo sapiens (Human), UniProt Q16644)
In short: as §1

MARK1 = MARK1 (Homo sapiens (Human), UniProt Q9P0L2)
In short: as §1

MINK = MINK (Homo sapiens (Human), UniProt Q8N4C8)
In short: as §1

MKK6 = MKK6 (Homo sapiens (Human), UniProt P52564)
In short: as §1

Mer = Mer (Homo sapiens (Human), UniProt Q12866)
In short: as §1

PAK4 = PAK4 (Homo sapiens (Human), UniProt O96013)
In short: as §1

PKCalpha = PKCalpha (Homo sapiens (Human), UniProt P17252)
In short: as §1

PKD2 = PKD2 (Homo sapiens (Human), UniProt Q9BZL6)
In short: as §1

PRK2 = PRK2 (Homo sapiens (Human), UniProt Q16513)
In short: as §1

Plk2 = Plk2 (Homo sapiens (Human), UniProt Q9NYY3)
In short: as §1

RIPK2 = RIPK2 (Homo sapiens (Human), UniProt O43353)
In short: as §1

Ron = Ron (Homo sapiens (Human), UniProt Q04912)
In short: as §1

SRC = SRC (Homo sapiens (Human), UniProt P12931)
In short: as §1

TBK1 = TBK1 (Homo sapiens (Human), UniProt Q9UHD2)
In short: as §1

TSSK1 = TSSK1 (Homo sapiens (Human), UniProt Q9BXA7)
In short: as §1

TSSK2 = TSSK2 (Homo sapiens (Human), UniProt Q96PF2)
In short: as §1

ULK2 = ULK2 (Homo sapiens (Human), UniProt Q8IYT8)
In short: as §1

Compound | Avg POC (Abl-P) [POC] | Avg POC (Abl2) [POC] | Avg POC (Bmx) [POC] | Avg POC (CAMK1) [POC] | Avg POC (CAMK1d) [POC] | Avg POC (CAMK2b) [POC] | Avg POC (CDK1/cyclinB) [POC] | Avg POC (CDK6/cyclinD3) [POC] | Avg POC (CDK7/cyclinH/MAT1) [POC] | Avg POC (CK1_y) [POC] | Avg POC (CK1gamma2) [POC] | Avg POC (FAK2) [POC] | Avg POC (FGFR4) [POC] | Avg POC (Fer) [POC] | Avg POC (Flt1) [POC] | Avg POC (HIPK2) [POC] | Avg POC (HIPK3) [POC] | Avg POC (IKKbeta) [POC] | Avg POC (IR Activated) [POC] | Avg POC (JAK2) [POC] | further results
COCCN1C[C@@H](NC(=O)Nc2c(C)c(-c3ccnc(C)c3)nn2-c2ccccc2)[C@H](c2ccc(F)c(F)c2)C1 [Example 2, 1-((3S,4R)-4-(3,4-difluorophenyl)-1-(2-methoxyethyl)pyrrolidin-3-yl)-3-(4-methyl-3-(2-methylpyridin-4-yl)-1-phenyl-1H-pyrazol-5-yl)urea] | 113.5 | 101 | 115.5 | 107 | 100 | 90.5 | 104 | 96 | 88 | 103 | 73.5 | 99.5 | 105.5 | 105 | 86 | 95 | 99.5 | 87 | 106.5 | 112.5 | Avg POC (LOK): 109 POC; Avg POC (MAPKAP-K3): 101.5 POC; Avg POC (MARK1): 97.5 POC; Avg POC (MINK): 98 POC; Avg POC (MKK6): 106.5 POC; Avg POC (Mer): 90.5 POC; Avg POC (PAK4): 103.5 POC; Avg POC (PKCalpha): 96 POC; Avg POC (PKD2): 101.5 POC; Avg POC (PRK2): 105 POC; Avg POC (Plk2): 99.5 POC; Avg POC (RIPK2): 105.5 POC; Avg POC (Ron): 122.5 POC; Avg POC (SRC): 105 POC; Avg POC (TBK1): 116.5 POC; Avg POC (TSSK1): 105 POC; Avg POC (TSSK2): 107 POC; Avg POC (ULK2): 96.5 POC
COCCN1C[C@@H](NC(=O)Nc2c(C)c(-c3cnc(C)nc3)nn2-c2ccccc2)[C@H](c2cc(F)cc(F)c2)C1 [Example 14, 1-((3S,4R)-4-(3,5-difluorophenyl)-1-(2-methoxyethyl)pyrrolidin-3-yl)-3-(4-methyl-3-(2-methylpyrimidin-5-yl)-1-phenyl-1H-pyrazol-5-yl)urea] | 102.5 | 95.5 | 105.5 | 103.5 | 103.5 | 93 | 97 | 99.5 | 97.5 | 97.5 | 53 | 107 | 110 | 100.5 | 81 | 99 | 89 | 99 | 100.5 | 109 | Avg POC (LOK): 105 POC; Avg POC (MAPKAP-K3): 105.5 POC; Avg POC (MARK1): 98 POC; Avg POC (MINK): 89.5 POC; Avg POC (MKK6): 99.5 POC; Avg POC (Mer): 78 POC; Avg POC (PAK4): 100.5 POC; Avg POC (PKCalpha): 93 POC; Avg POC (PKD2): 108 POC; Avg POC (PRK2): 106.5 POC; Avg POC (Plk2): 102 POC; Avg POC (RIPK2): 93.5 POC; Avg POC (Ron): 104 POC; Avg POC (SRC): 103.5 POC; Avg POC (TBK1): 103 POC; Avg POC (TSSK1): 104.5 POC; Avg POC (TSSK2): 107.5 POC; Avg POC (ULK2): 106.5 POC

Reference: patent US9896435B2, “N-pyrrolidinyl,N′-pyrazolyl-urea, thiourea, guanidine and cyanoguanidine compounds as TrkA kinase inhibitors” (Array BioPharma Inc., priority 2012, dated 2018)
